Biological target: T1, AR (Homo sapiens, UniProt P10275)
T1 construct: endogenous in cells; host or cells: VCaP cells
T1 sequence (P10275 1-920): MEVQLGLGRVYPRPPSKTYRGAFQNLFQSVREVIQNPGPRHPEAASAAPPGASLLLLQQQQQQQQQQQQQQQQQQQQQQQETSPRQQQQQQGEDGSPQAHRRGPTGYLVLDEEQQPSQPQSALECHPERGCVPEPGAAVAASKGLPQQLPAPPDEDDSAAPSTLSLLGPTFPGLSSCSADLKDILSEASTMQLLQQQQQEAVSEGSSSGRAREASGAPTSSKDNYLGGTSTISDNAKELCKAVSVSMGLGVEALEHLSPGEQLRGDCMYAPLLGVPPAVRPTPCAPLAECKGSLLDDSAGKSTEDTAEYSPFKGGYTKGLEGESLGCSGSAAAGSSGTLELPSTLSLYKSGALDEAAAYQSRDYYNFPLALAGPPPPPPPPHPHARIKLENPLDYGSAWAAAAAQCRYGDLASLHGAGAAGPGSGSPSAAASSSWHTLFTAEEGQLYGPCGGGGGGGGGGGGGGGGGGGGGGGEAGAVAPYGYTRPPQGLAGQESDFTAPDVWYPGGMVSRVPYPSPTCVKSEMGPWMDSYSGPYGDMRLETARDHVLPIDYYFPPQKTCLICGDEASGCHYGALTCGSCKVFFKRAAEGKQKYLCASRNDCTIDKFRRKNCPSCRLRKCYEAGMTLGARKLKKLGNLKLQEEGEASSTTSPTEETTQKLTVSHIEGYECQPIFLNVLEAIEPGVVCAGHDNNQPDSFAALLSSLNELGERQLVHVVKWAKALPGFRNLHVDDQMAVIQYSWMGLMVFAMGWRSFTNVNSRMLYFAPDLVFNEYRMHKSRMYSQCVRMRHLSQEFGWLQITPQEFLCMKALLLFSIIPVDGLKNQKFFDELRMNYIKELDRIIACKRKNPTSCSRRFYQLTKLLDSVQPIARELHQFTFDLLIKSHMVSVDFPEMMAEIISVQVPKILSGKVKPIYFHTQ
Test: VCAP AR Degradation Assay
Assay type: cell-based
Conditions: VCaP cells, 24 h, AR ELISA; for DC50: concentration of compound when AR level = 50% of DMSO control (50% AR degradation); for Y: lowest measured AR level normalized to DMSO control (AR degradation efficiency)
Procedure, shortened: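 VCaP cells (DMEM, 8% FBS) were treated 24 h at 37 °C with a 10-point 1:3 series from 5 µM final, with 0.1% DMSO control. Total AR in lysates was measured by sandwich ELISA as percent of DMSO. A 4-parameter fit gave DC50 (50% of control) and EC50; fitted Ymin marks degradation efficiency.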

Row | SMILES | DC50 | Y
1 | Cn1nc(N2CCC(=O)NC2=O)c2cccc(NC(=O)CN3CCC(CCO[C@H]4CC[C@H](N5C(=S)N(c6ccc(C#N)c(C(F)(F)F)c6)C(=O)C5(C)C)CC4)C(F)(F)C3)c21 (stereo partly drawn) [Cmpd 35, 2-(4-(2-(((trans)-4-(3-(4-Cyano-3-(trifluoromethyl)phenyl)-5,5-dimethyl-4-oxo-2-thioxoimidazolidin-1-yl)cyclohexyl)oxy)ethyl)-3,3-difluoropiperidin-1-yl)-N-(3-(2,4-dioxotetrahydropyrimidin-1(2H)-yl)-1-methyl-1H-indazol-7-yl)acetamide] | ≤ 2 nM | * (0<Y≤20%)
2 | Cn1nc(N2CCC(=O)NC2=O)c2cccc(NC(=O)CN3CCC(CCO[C@H]4CC[C@H](N5C(=S)N(c6cnc(C#N)c(C(F)(F)F)c6)C(=O)C5(C)C)CC4)C(F)(F)C3)c21 (stereo partly drawn) [Cmpd 36, 2-(4-(2-(((trans)-4-(3-(6-Cyano-5-(trifluoromethyl)pyridin-3-yl)-5,5-dimethyl-4-oxo-2-thioxoimidazolidin-1-yl)cyclohexyl)oxy)ethyl)-3,3-difluoropiperidin-1-yl)-N-(3-(2,4-dioxotetrahydropyrimidin-1(2H)-yl)-1-methyl-1H-indazol-7-yl)acetamide] | ≤ 2 nM | * (0<Y≤20%)
